# Results: article PMC9794587 (Frontiers in Pharmacology, 2022)
# Where two headings read alike, the source gives them in different places. Where no end group is shown, it is not given here.
# Assays:
# [1] = rat bile collected from 0 to 72 h after administration (BDC rats); conditions: SD rats, up to 72 h
# [2] = rat plasma collected after a single IM injection of [3H]BPC157; conditions: SD rats, up to 24 h
# [3] = rat urine collected from 0 to 8 h and from 8 to 72 h after administration; conditions: SD rats, up to 72 h
# [4] = rat feces collected from 0 to 72 h after administration; conditions: SD rats, up to 72 h
# [5] = gastric juice; conditions: cited from earlier work
# [6] = in vivo; conditions: both, Sprague-Dawley, rat, iv, t1/2
# [7] = Pharmacokinetics of BPC157 in SD rats after intravenous and intramuscular administration (plasma, LC-MS/MS); conditions: for bioavailability: in vivo
# [8] = in vivo; conditions: both, beagle, dog, t1/2
# [9] = can be stored at room temperature; ref Sikiric et al., 2018; cited from earlier work
# Text: Body-protective compound (BPC) 157 is a peptide isolated from human gastric juice ([Sikiric et al., 1993]). BPC157 comprises 15 amino acids ([…]) and has a molecular weight of 1419 Da. […] BPC157 exerts a significant protective effect on various tissues and organs, such as th ...
# [10] = rat, in vivo, im, t1/2
# [11] = Pharmacokinetics of BPC157 in beagle dogs after intravenous and intramuscular administration (plasma)
# [12] = dog, in vivo, im, t1/2
# [13] = mice, rats, rabbits, or dogs; ref Xu et al., 2020; cited from earlier work
# Text: Previously, we established a solid-phase synthesis process for BPC157 ([Xue et al., 2004]) and verified its biological activity in rat gastric ulcer models and various skin wound models ([Huang et al., 2015]). […] For evaluating its future clinical use as a therapeutic drug and follow-up clinical trials, the present study was undertaken to evaluate the pharmacokinetics, tissue distribution, metabolis ...
# [14] = Radiometabolite profiling of [3H]BPC157 in rat plasma, urine, bile and feces (HPLC with radioactive detector, LC-MS/MS); type: in vivo, SD rats; conditions: for proportion of the bile sample radioactivity: single IM 100 µg/300 μCi/kg [3H]BPC157, mixed bile samples 0 to 72 h; for proportion of the total fecal radioactivity: single IM 100 µg/300 μCi/kg [3H]BPC157, feces 0 to 72 h; for proportion of the total radioactivity in urine: single IM 100 µg/300 μCi/kg [3H]BPC157, mixed urine samples 8 to 72 h
# Protocol: Thirty intact SD rats, six JVC rats, and six BDC rats (half male and half female subjects) were injected intramuscularly with 100 µg/300 μCi/kg of [3H]BPC157. Whole blood and plasma samples of six JVC rats were collected at 0.05, 0.167, 0.5, 1, 2, 4, 8, 24, 48, and 72 h after administration (three males and three females at each time point) for the examination of radio pharmacokinetics of total plasma. Six intact SD rats were used for urinary, fecal, and biliary excretion studies. Urine and fecal samples were collected from each rat at 0–8, 8–24, 24–48, and 48–72 h. Animal carcasses were collected 72 h after administration. Bile excretion was studied in six SD rats with BDC. Bile, urine, and feces were collected 0–72 h after administration. Tissue distribution of BPC was studied in 24 intact SD rats. The rats were euthanized, and tissue samples (brain, heart, kidneys, liver, spleen, lung, stomach, intestine, muscle, grease, ovaries, womb, testicles, and thymus) were collected at 3 min, 10 min, 1 h, and 24 h after administration (three males and three females at each time point). Male SD rats were administered a single IM injection of blank solvent (excipient), and biological samples, including whole blood, plasma, urine, feces, and tissues, were collected for background control. The radioactivity of the plasma, tissue, bile, urinary, and fecal samples was analyzed using a liquid scintillation counter.
# Plasma, bile, urine, and fecal samples of intact SD rats or BDC rats after a single administration of [3H]BPC157 were analyzed by HPLC combined with a low-energy radionuclide detection technique to obtain the radiometabolite profiles of [3H]BPC157. The structures of the main metabolites of [3H]BPC157 in rat plasma, bile, urine, and feces were analyzed and identified using LC-MS/MS and standard molecular weight comparison.
# [15] = SD rats, single intravenous 20 μg/kg, plasma, LC-MS/MS, mean, n = 6
# [16] = both, Sprague-Dawley, rat, plasma, im, 20 μg/kg
# [17] = both, Sprague-Dawley, rat, plasma, im, 100 μg/kg
# [18] = both, Sprague-Dawley, rat, plasma, im, 500 μg/kg
# [19] = both, Sprague-Dawley, rat, plasma, iv, 20 μg/kg
# [20] = both, beagle, dog, plasma, im, 6 μg/kg
# [21] = both, beagle, dog, plasma, im, 30 μg/kg
# [22] = both, beagle, dog, plasma, im, 150 μg/kg
# [23] = both, beagle, dog, plasma, iv, 6 μg/kg
compound,measurement,setting,value
GEPPPPGKPADDAGLV,fragment found,[1],"[^3H]proline (M1), major"
same,fragment found,[2],M1(Proline) and M2 and M3 and M4 and M5 and M6
same,fragment found,[3],"[^3H]proline (M1), major, 0 to 8 h"
same,fragment found,[4],[^3H]proline (M1)
same,not cleaved,[5],"resistant to hydrolysis, enzyme digestion, and even gastric juice"
"CC(C)C[C@H](NC(=O)CNC(=O)[C@H](C)NC(=O)[C@H](CC(=O)O)NC(=O)[C@H](CC(=O)O)NC(=O)[C@H](C)NC(=O)[C@@H]1CCCN1C(=O)[C@H](CCCCN)NC(=O)CNC(=O)[C@@H]1CCCN1C(=O)[C@@H]1CCCN1C(=O)[C@@H]1CCCN1C(=O)[C@H](CCC(=O)O)NC(=O)CN)C(=O)N[C@H](C(=O)O)C(C)C [BPC157, Gly-Glu-Pro-Pro-Pro-Pro-Gly-Lys-Pro-Ala-Asp-Asp-Ala-Gly-Leu-Val]",half-life,[6],15.2 min
same,Cssav,"[7]; SD rats, repeat intramuscular 100 μg/kg for seven consecutive days, Cssav = AUC0–t/τ, τ is the interval of administration",0.290 ng/mL
same,Cssmin,"[7]; SD rats, repeat intramuscular 100 μg/kg for seven consecutive days, Cssmin=(C-48h + C-24h + C0h)/3",0 ng/mL
same,Tmax,"[7]; SD rats, repeat intramuscular 100 μg/kg once a day for seven consecutive days, after last dose, plasma, LC-MS/MS, mean, n = 6",3.00 min
same,Tmax,"[7]; SD rats, single intramuscular 20 μg/kg, plasma, LC-MS/MS, mean, n = 6",3 min
same,Tmax,"[7]; SD rats, single intramuscular 100 μg/kg, plasma, LC-MS/MS, mean, n = 6",3 min
same,Tmax,"[7]; SD rats, single intramuscular 500 μg/kg, plasma, LC-MS/MS, mean, n = 6",3 min
same,MRT,[7]; [15],0.727 min
same,Vss,[7]; [15],0.0364 L/kg
same,AUC(0-inf),[7]; [16],1.25 ng·h/mL
same,AUC(0-t),[7]; [16],1.25 ng·h/mL
same,Cmax,[7]; [16],12.3 ng/mL
same,MRT,[7]; [16],7.27 min
same,Tmax,[7]; [16],3 min
same,AUC(0-inf),[7]; [17],4.83 ng·h/mL
same,AUC(0-t),[7]; [17],4.82 ng·h/mL
same,Cmax,[7]; [17],48.9 ng/mL
same,MRT,[7]; [17],9.61 min
same,Tmax,[7]; [17],3 min
same,AUC(0-inf),[7]; [18],32.2 ng·h/mL
same,AUC(0-t),[7]; [18],32.2 ng·h/mL
same,Cmax,[7]; [18],141 ng/mL
same,MRT,[7]; [18],12.8 min
same,Tmax,[7]; [18],3 min
same,AUC(0-inf),[7]; [19],6.67 ng·h/mL
same,AUC(0-t),[7]; [19],6.65 ng·h/mL
same,clearance,[7]; [19],50.1 mL/min/kg
same,bioavailability,"[7]; rat, im, 20 ug/kg",18.8%
same,bioavailability,"[7]; rat, im, 100 ug/kg",14.5%
same,bioavailability,"[7]; rat, im, 500 ug/kg",19.4%
same,dose proportionality (AUC0–t and Cmax vs dose),"[7]; rats, IM 20, 100, 500 μg/kg, linear regression",linear pharmacokinetic characteristics
same,time for plasma BPC157 to reach its peak,"[7]; rats, IM 20, 100, and 500 μg/kg",≤ 9 min
same,elimination half-life of the prototype drug,"[7]; rats, IV and IM, all doses, plasma",less than 30 min
same,detection of prototype drug in plasma 4 h after administration,"[7]; rats, plasma, 4 h after administration",could not be detected
same,half-life,[8]; im,20 ± 5.53 min
same,half-life,[8]; iv,5.27 ± 2.25 min
same,stability,[9],"resistant to hydrolysis, enzyme digestion, and even gastric juice"
same,half-life,[10],18.5 min
same,dose proportionality (AUC0–t and Cmax vs dose),"[11]; beagle dogs, IM 6, 30, 150 μg/kg, linear regression",linear pharmacokinetic characteristics
same,elimination half-life of the prototype drug,"[11]; beagle dogs, IV and IM, all doses, plasma",less than 30 min
same,detection of prototype drug in plasma 4 h after administration,"[11]; beagle dogs, plasma, 4 h after administration",could not be detected
same,Cssav,"[11]; beagle dogs, repeated intramuscular 30 μg/kg for seven consecutive days, Cssav = AUC0–t/τ, mean ± SD, n = 6",0.108 ± 0.0177 ng/mL
same,Cssmin,"[11]; beagle dogs, repeated intramuscular 30 μg/kg for seven consecutive days, Cssmin = (C-48h + C-24h + C0h)/3, mean ± SD, n = 6",0.00285 ± 0.00698 ng/mL
same,time for plasma BPC157 to reach its peak,"[11]; beagles, IM 6, 30, and 150 μg/kg",≤ 9 min
same,AUC(0-inf),[11]; [20],0.5 ng·h/mL
same,AUC(0-t),[11]; [20],0.483 ng·h/mL
same,Cmax,[11]; [20],1.05 ± 0.429 ng/mL
same,MRT,[11]; [20],25.8 min
same,Tmax,[11]; [20],6.33 min
same,bioavailability,[11]; [20],45.3 ± 24.9%
same,AUC(0-inf),[11]; [21],2.73 ng·h/mL
same,AUC(0-t),[11]; [21],2.67 ng·h/mL
same,Cmax,[11]; [21],3.3 ± 0.508 ng/mL
same,MRT,[11]; [21],37 min
same,Tmax,[11]; [21],8.67 min
same,bioavailability,[11]; [21],47.6 ± 18.1%
same,AUC(0-inf),[11]; [22],13.8 ng·h/mL
same,AUC(0-t),[11]; [22],13.8 ng·h/mL
same,Cmax,[11]; [22],26.1 ± 7.82 ng/mL
same,MRT,[11]; [22],31.4 min
same,Tmax,[11]; [22],8.17 min
same,bioavailability,[11]; [22],50.6 ± 27%
same,AUC(0-inf),[11]; [23],1.28 ng·h/mL
same,MRT,[11]; [23],2.49 min
same,clearance,[11]; [23],90.8 ± 40.1 mL/min/kg
same,Tmax,"[11]; dog, in vivo, im",10.5 min
same,Vd,"[11]; dog, in vivo, iv, 6 ug/kg",0.243 ± 0.162 L/kg
same,half-life,[12],19.6 ± 3.72 min
same,"tolerability, serious toxic effects",[13],well tolerated and did not demonstrate any serious toxic effects
[3H]O[3H] [tritium water],proportion of the bile sample radioactivity,[14]; female BDC rats,91.2%
same,proportion of the total fecal radioactivity,[14]; female rats,30.1%
same,proportion of the total radioactivity in urine,[14]; female rats,69.5%
same,proportion of the bile sample radioactivity,[14]; male BDC rats,91.0%
same,proportion of the total fecal radioactivity,[14]; male rats,29.3%
same,proportion of the total radioactivity in urine,[14]; male rats,75.3%
